Assay results taken from patent US20070082872A1, “Indole-containing compounds with anti-tubulin and vascular targeting activity” (priority 1999, published 2007).

Experiments:
[1] = test system: MHEC-5T hemangioendothelioma tumor; experiment: Inhibition of tumor blood flow, Fluorescent Bead Assay; assay type: in vivo, mice; conditions: for % VAPM (vessel area per tumor tissue area as a percentage of the control): single i.p. injection, 24 hours post-treatment
Description: The antivascular effects of the indole phosphate prodrug Oxi-8007, was assessed in tumor-bearing mice using a Fluorescent Bead Assay. A MHEC-5T hemangioendothelioma tumor model was established by subcutaneous injection of 0.5×10^6 cultured transformed cell murine myocardial vascular endothelial cell line (“MHEC5-T”) cells into the right flank of Fox Chase CB-17 Severe Combined Immunodeficient (“SCID”) mice. When transplanted tumors reached a size of 500 mm^3 (a size without development of necrosis), the mice received a single intraperitoneal (i.p.) injection of saline control or compound at doses ranging from 3.2 to 25 mg/kg. At 24 hours post-treatment, mice were injected intravenously with 0.25 ml of diluted FluoSphere beads (1:6 in physiological saline) in the tail vein, sacrificed after 3 minutes, and tumor was excised for cryosectioning. Tumor cryosections at a thickness of 8 um were directly examined using quantitative fluorescent microscopy. Blood vessels were indicated by blue fluorescence from injected beads. For quantification, image analysis of 3 sections from three tumors treated in each group were examined and vascular shutdown was expressed as vessel area (mm^2) per tumor tissue area (mm^2) as a percentage of the control (“%VAPM”). The results as shown in Table 4 indicate a clear dose-dependent effect of the agent on tumor blood flow as indicated by the reduction in blood vessel area at 24 hours following administration of Oxi8007. Administration of a dose of 100 mg/kg of Oxi-8007 or higher was particularly effective, causing a >98% reduction in tumor vessel volume relative to the control. A time-course of the effect of OX08007 on tumor blood flow is illustrated in FIG. 14.
Additional compounds of the present invention were tested for antivascular effects at two dosages (100 mg/kg and 10 mg/kg) using the same Fluorescent Bead Assay as in the previous experiment.

[2] = test system: BXPC-3 (pancreas); experiment: In vitro growth inhibition (SRB), BXPC-3; assay type: cell-based, human; conditions: 48 hours incubation
Description: (§1) Newly prepared compounds were evaluated for cytotoxic activity against a variety of cell lines derived from human tumors using an assay system similar to the National Cancer Institute procedure previously described (Monks et al, J. Natl. Cancer Inst., 1991). Briefly, the cell suspensions, diluted according to the particular cell type and the expected target cell density (5,000-40,000 cells per well based on cell growth characteristics), were added by pipet (100 μl) to 96-well microtiter plates. Inoculates were allowed a preincubation time of 24-28 hours at 37° C. for stabilization. Incubation with the inhibitor compounds lasted for 48 hours in 5% CO2 atmosphere and 100% humidity. Determination of cell growth was performed by in situ fixation of cells, followed by staining with a protein-binding dye sulforhodamine B (SRB), which binds to the basic amino acids of cellular macromolecules. The solubilized stain was measured spectrophotometrically.
(§2) Several compounds were evaluated for cytotoxic activity against […] P388 leukemia cell lines. […] These and additional compounds were evaluated in terms of growth inhibitory activity against several other […] cancer cell lines including: central nervous system (“CNS”, SF-295), pancreas (BXPC-3), non-small cell lung cancer (“lung-NSC”, NCI-H460), breast (MCF-7), colon (KM20L2), ovarian (OVCAR-3), and prostate (DU-145). […]

[3] = test system: SF-295 (CNS); experiment: In vitro growth inhibition (SRB), SF-295; assay type: cell-based, human; conditions: 48 hours incubation
Description: as §1, §2

[4] = test system: MDA-MB-231 cells; experiment: Tumor growth control in vivo, MDA-MB-231 human breast adenocarcinoma model; conditions: SCID mice, 25, 50 or 100 mg/kg daily i.p. for 5 consecutive days; effective dose printed as X mg/kg
Description: The antitumor activity of indole phosphate prodrug, Oxi-8007, was assessed in tumor-bearing mice by measuring its effects on tumor volume. A human breast adenocarcinoma model was established by subcutaneous injection of cultured MDA-MB-231 cells in Fox Chase CB-17 SCID mice. When the average tumor size reached 50-100 mm^3, mice were randomly divided into several groups (n=10) with no significant difference in body weight and tumor size. Mice were administered Oxi-8007 in saline carrier at doses of 25, 50 or 100 mg/kg by daily intraperitoneal (i.p.) injection for 5 consecutive days (Q1×5). Saline carrier only was used as the control treatment. On Day 3, 7, 10, 13, 17 and 23, tumors were excised from animals in each treatment group (n=2) and measured by width and length. Tumor volume was calculated according to the following formula: Length×Width^2×0.4. The dosage effects of Oxi-com 197 is illustrated in FIG. 15.

[5] = test system: DU-145 (prostate); experiment: In vitro growth inhibition (SRB), DU-145; assay type: cell-based, human; conditions: 48 hours incubation
Description: as §1, §2

[6] = test system: MCF-7 (breast); experiment: In vitro growth inhibition (SRB), MCF-7; assay type: cell-based, human; conditions: 48 hours incubation
Description: as §1, §2

[7] = test system: KM20L2 (colon); experiment: In vitro growth inhibition (SRB), KM20L2; assay type: cell-based, human; conditions: 48 hours incubation
Description: as §1, §2

[8] = test system: NCI-H460 (lung-NSC); experiment: In vitro growth inhibition (SRB), NCI-H460; assay type: cell-based, human; conditions: 48 hours incubation
Description: as §1, §2

With COc1ccc2c(C(=O)c3cc(OC)c(OC)c(OC)c3)c(-c3ccc(OC)c(OP(=O)([O-])[O-])c3)[nH]c2c1.[Na+].[Na+] [Oxi-8007, 2-(3′-Disodiumphosphate-4′-methoxyphenyl)-3-(3″,4″,5″-trimethoxybenzoyl)-6-methoxyindole] the “% VAPM (vessel area per tumor tissue area as a percentage of the control)” value ([1]; 50 mg/kg) was 52%, the “% VAPM (vessel area per tumor tissue area as a percentage of the control)” value ([1]; 100 mg/kg) was 2% and the “% VAPM (vessel area per tumor tissue area as a percentage of the control)” value ([1]; 200 mg/kg) was 1%. For the same compound, the “reduction in tumor vessel volume relative to the control” value ([1]; dose of 100 mg/kg or higher, 24 hours) was over 98%, the “GI50 for Cell Line BXPC-3” value [2] was 46 ng/mL and the “GI50 for Cell Line SF-295” value [3] was 5.5 ng/mL. For the same compound, the “tumor growth (tumor volume) relative to control treatment” value [4] was “significantly inhibited tumor growth”, the “GI50 for Cell Line DU-145” value [5] was under 1 ng/mL and the “GI50 for Cell Line MCF-7” value [6] was 2.3 ng/mL. For the same compound, the “GI50 for Cell Line KM20L2” value [7] was 4.3 ng/mL and the “GI50 for Cell Line NCI-H460” value [8] was 2.7 ng/mL.
